Laboratory results taken from patent US11590117B2, “Treatment of a hematologic malignancy with 2-(4-chlorophenyl)-n-((2-(2,6-dioxopiperidin-3-yl)-1-oxoisoindolin-5-yl)methyl)-2,2-difluoroacetamide” (priority 2016, dated 2023).
Where two headings read alike, the source gives them in different places.

What was measured:
Type in all cases: cell-based, human
[1] = test system: HNT-34 cells and PBMCs; test: Flow cytometry caspase 3/7 assay; conditions: HNT-34 cells over non-pre-activated PBMCs; 0.1 μM Compound 1; 72 hours
Experimental: Cell Apoptosis Assays: The ability of Compound 1 to induce apoptosis was assessed in selected AML cell lines and healthy PBMCs at the time points and compound concentrations indicated. For Annexin V/7-AAD readout by flow cytometry, AML cell lines were plated into flat bottom 96-well plates (BD Falcon) at a seeding density of 0.1 to 0.3×10^6 cells per mL in 200 μL complete media. Compound 1 was dispensed onto the plates and the cells were incubated for the times indicated. For frozen PBMCs, cells were thawed as previously described and plated at a seeding density of 1×10^6 cells per mL in 200 μL on Corning® BioCoat™ T-Cell Activation Anti-Human CD3 96-well plates (Corning Inc., Corning, N.Y.). Compound 1 was dispensed onto the plates and the cells were incubated for the times indicated. […] One hundred microliters of Annexin V/7-AAD buffer was added per well and the cells incubated for 15 minutes before being analyzed using the Attune Flow Cytometer (Life Technologies, Carlsbad, Calif.). For caspase 3/7 activity, the remaining 100 μL was incubated with CellEvent™ Caspase-3/7 Green ReadyProbes® Reagent (1:1000 dilution; Molecular Probes) for 15 minutes before being analyzed using the Attune Flow Cytometer. […]
The effects of Compound 1 in healthy PBMCs were also assessed. Compound 1 was added to PBMC s from one donor at time zero and assessed at 72 hours. […]

[2] = test system: MOLM-13; test: CellTiter-Glo (CTG) cell proliferation assay, 72 hours
Experimental: (§1) Preparation of Solutions of Test Article: Compounds were plated into black 384-well plates (Corning Inc.) to a final DMSO volume of 0.1% assuming a maximal volume of 50 μL. A 10-point dose response starting at 10 μM with a 1:3 dilution was printed in duplicate by acoustic dispense using the EDC ATS-100 platform.
(§2) Cell Proliferation Assays: The effect of Compound 1 on the proliferation/viability of the hematological cell lines (Table 1 Table, Table 2 and Table 3), THLE-2, or PBMCs was assessed after 72 hours incubation using CTG (Promega), according to manufacturer's instructions. Hematological cell lines were dispensed into compound plates by a Multidrop™ Combi Reagent Dispenser (Thermo Scientific, Waltham, Mass.) at a concentration of 0.1 to 0.3×10^6 cells per mL in a 50 μL total volume. THLE-2 cells were seeded out at 1000 cells per well in 50 μL volume and incubated for 72 hours. At 72 hours, 25 μL per well of CTG was dispensed by a Multidrop™ Combi Reagent Dispenser and adenosine triphosphate (ATP) release by viable cells was measured as relative luminescence units after 30 minutes using the Envision platform.
(§3) Proliferation was assessed using the CellTitre-Glo® assay. Results for cultures incubated with Compound 1 were normalized to results for control cultures for each cell line. The IC50 for inhibition of cell growth by Compound 1 was determined for each cell line using ActivityBase software.
(§4) Cultures of 11 different AML cell lines were incubated 72 hours with Compound 1 at concentrations of 0.5 nM to 10 μM. Proliferation was assessed using the CellTitre-Glo® assay. Results for cultures incubated with Compound 1 were normalized to results for control cultures for each cell line. Inhibition of cell growth was also determined in THLE-2 cells at Compound 1 concentrations of 0.1 nM to 100 μM and in PBMCs at Compound 1 concentrations of 0.5 nM to […]. The Compound 1 therapeutic window was calculated using area under the curve (AUC; Activity Area [Barretina et al, Nature (2012) 483603-607] measurements (in arbitrary units) as determined using GraphPad Prism software for plots of cell proliferation vs concentration and dividing the AUC for the immortalized (but nontumorigenic) human THLE-2 hepatocyte cell line or PBMCs by the AUC for the AML cell line.

[3] = test system: MV-4-11; test: as above
Experimental: as §1, §2, §3, §4

[4] = test system: Kasumi-1; test: as above
Experimental: as §1, §2, §3, §4

[5] = test system: NB-4; test: as above
Experimental: as §1, §2, §3, §4

[6] = test system: OCI-AML3; test: as above; conditions: for IC50: liquid culture
Experimental: as §1, §2, §3, §4

[7] = MOLM-13, AUC PBMCs divided by AUC AML cell line
[8] = MOLM-13, AUC THLE-2 divided by AUC AML cell line
[9] = MV-4-11, AUC PBMCs divided by AUC AML cell line
[10] = MV-4-11, AUC THLE-2 divided by AUC AML cell line
[11] = Kasumi-1, AUC PBMCs divided by AUC AML cell line
[12] = Kasumi-1, AUC THLE-2 divided by AUC AML cell line
[13] = NB-4, AUC PBMCs divided by AUC AML cell line
[14] = NB-4, AUC THLE-2 divided by AUC AML cell line
[15] = OCI-AML3, AUC PBMCs divided by AUC AML cell line
[16] = OCI-AML3, AUC THLE-2 divided by AUC AML cell line

## O=C1CCC(N2Cc3cc(CNC(=O)C(F)(F)c4ccc(Cl)cc4)ccc3C2=O)C(=O)N1 (centres unmarked) [Compound 1, 2-(4-chlorophenyl)-N-((2-(2,6-dioxopiperidin-3-yl)-1-oxoisoindolin-5-yl)methyl)-2,2-difluoroacetamide]
[1]
  difference in elevation of caspase 3/7 activity: ~3 fold
[2]; Homo sapiens, MOLM-13, 72 h, read-out: Proliferation IC50 (mean ± SD)
  IC50: 75 ± 33 nM
[2]; [7]
  Therapeutic Window Method 1 As Compared with PBMCs: 6.3
  Therapeutic Window Method 2 As Compared with PBMCs: 3.7
[2]; [8]
  Therapeutic Window Method 1 As Compared with THLE-2 Cells: 9.9
  Therapeutic Window Method 2 As Compared with THLE-2 Cells: 13.9
[2]; MOLM-13, Activity Area of proliferation vs concentration, 72 hours, 0.5 nM to 10 μM
  AUC: 39.6 arbitrary units
[3]; Homo sapiens, MV4-11, 72 h, read-out: Proliferation IC50 (mean ± SD)
  IC50: 29 ± 10 nM
[3]; [9]
  Therapeutic Window Method 1 As Compared with PBMCs: 12
  Therapeutic Window Method 2 As Compared with PBMCs: 7.1
[3]; [10]
  Therapeutic Window Method 1 As Compared with THLE-2 Cells: 19
  Therapeutic Window Method 2 As Compared with THLE-2 Cells: 26.8
[3]; MV-4-11, Activity Area of proliferation vs concentration, 72 hours, 0.5 nM to 10 μM
  AUC: 20.5 arbitrary units
[4]; Homo sapiens, Kasumi 1, 72 h, read-out: Proliferation IC50 (mean ± SD)
  IC50: 21 ± 13 nM
[4]; [11]
  Therapeutic Window Method 1 As Compared with PBMCs: 6.6
  Therapeutic Window Method 2 As Compared with PBMCs: 3.8
[4]; [12]
  Therapeutic Window Method 1 As Compared with THLE-2 Cells: 10
  Therapeutic Window Method 2 As Compared with THLE-2 Cells: 14.5
[4]; Kasumi-1, Activity Area of proliferation vs concentration, 72 hours, 0.5 nM to 10 μM
  AUC: 37.9 arbitrary units
[5]; Homo sapiens, NB-4, 72 h, read-out: Proliferation IC50 (mean ± SD)
  IC50: 17 ± 5 nM
[5]; [13]
  Therapeutic Window Method 1 As Compared with PBMCs: 17
  Therapeutic Window Method 2 As Compared with PBMCs: 10.1
[5]; [14]
  Therapeutic Window Method 1 As Compared with THLE-2 Cells: 27
  Therapeutic Window Method 2 As Compared with THLE-2 Cells: 38.1
[5]; NB-4, Activity Area of proliferation vs concentration, 72 hours, 0.5 nM to 10 μM
  AUC: 14.4 arbitrary units
[6]; Homo sapiens, OCI-AML-3, 72 h, read-out: Proliferation IC50 (mean ± SD), OCI-AML3, 72 hours
  IC50: 3000 nM
[6]; [15]
  Therapeutic Window Method 1 As Compared with PBMCs: 0.45
  Therapeutic Window Method 2 As Compared with PBMCs: 0.3
[6]; [16]
  Therapeutic Window Method 1 As Compared with THLE-2 Cells: 0.70
  Therapeutic Window Method 2 As Compared with THLE-2 Cells: 1.0
[6]; OCI-AML3, Activity Area of proliferation vs concentration, 72 hours, 0.5 nM to 10 μM
  AUC: 563.0 arbitrary units
[6]; read-out: Proliferation IC50 (mean ± SD), OCI-AML3, 72 hours
  IC50: 3400 ± 3330 nM
